Molecular target: T1, Src (Homo sapiens, UniProt P12931)
T1 construct: recombinant GST-Src (full-length) and GST-Kinase (270–536 aa); endogenous Src in cell lysates
Experiment: matrine-bead pull-down of recombinant GST-Src/GST-Kinase competed by free matrine; CETSA and DARTS in lysates; IC50 from Src kinase activity kit in SKOV3 cells ([…] ATP)
Assay type: binding

T1 sequence (P12931 2-536): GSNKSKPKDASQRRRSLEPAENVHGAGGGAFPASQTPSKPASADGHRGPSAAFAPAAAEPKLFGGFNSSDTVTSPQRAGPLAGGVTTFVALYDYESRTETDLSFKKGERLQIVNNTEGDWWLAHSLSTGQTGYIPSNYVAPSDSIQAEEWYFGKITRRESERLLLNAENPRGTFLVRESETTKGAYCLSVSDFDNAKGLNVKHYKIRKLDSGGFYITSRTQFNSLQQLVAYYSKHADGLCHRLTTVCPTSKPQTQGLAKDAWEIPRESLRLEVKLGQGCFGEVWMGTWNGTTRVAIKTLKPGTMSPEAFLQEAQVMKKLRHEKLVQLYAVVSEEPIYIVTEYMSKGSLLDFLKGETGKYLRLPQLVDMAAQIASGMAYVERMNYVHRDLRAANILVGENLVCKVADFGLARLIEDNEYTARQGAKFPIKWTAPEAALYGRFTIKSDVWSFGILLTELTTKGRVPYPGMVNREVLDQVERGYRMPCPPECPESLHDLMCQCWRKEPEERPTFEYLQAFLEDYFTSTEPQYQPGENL

**Q.** For `O=C1CCC[C@@H]2[C@H]3CCCN4CCC[C@@H](CN12)[C@@H]34` [MA, matrine], which IC50 is on record?
**A.** 7.37 mM
